Source: the NIST ThermoML archive (doi:10.1021/je060271a)

Conditions: 343.15 K, Liquid, Vibrating tube method

CCCCC(=O)OCC(COC(=O)CCCC)(COC(=O)CCCC)COC(=O)CCCC [pentaerythritol tetrapentanoate]
Conditions | mass density [kg/m3]
27496 kPa | 998.3
27541 kPa | 998.4
27578 kPa | 998.4
27617 kPa | 998.5
27662 kPa | 998.4
27700 kPa | 998.5
27738 kPa | 998.5
27785 kPa | 998.6
27824 kPa | 998.6
27862 kPa | 998.5
27909 kPa | 998.6
27948 kPa | 998.7
27987 kPa | 998.7
28026 kPa | 998.7
28074 kPa | 998.7
28113 kPa | 998.8
28153 kPa | 998.7
28200 kPa | 998.8
28240 kPa | 998.9
28289 kPa | 998.9
28330 kPa | 998.9
28371 kPa | 998.8
28412 kPa | 998.9
28453 kPa | 999
28503 kPa | 998.9
28545 kPa | 999
28596 kPa | 999.1
28641 kPa | 999
28684 kPa | 999
28725 kPa | 999.2
28755 kPa | 999.2
28785 kPa | 999.3
28821 kPa | 999.1
28853 kPa | 999.3
28882 kPa | 999.3
28912 kPa | 999.2
28948 kPa | 999.2
28978 kPa | 999.3
29009 kPa | 999.3
29045 kPa | 999.5
29076 kPa | 999.4
29107 kPa | 999.3
29143 kPa | 999.5
29174 kPa | 999.4
29204 kPa | 999.5
29242 kPa | 999.5
29275 kPa | 999.5
29306 kPa | 999.5
29338 kPa | 999.6
29375 kPa | 999.6
29406 kPa | 999.6
29437 kPa | 999.6
29474 kPa | 999.6
29506 kPa | 999.7
29538 kPa | 999.7
29576 kPa | 999.7
29607 kPa | 999.7
29639 kPa | 999.8
29671 kPa | 999.8
29710 kPa | 999.8
29741 kPa | 999.9
29780 kPa | 999.8
29812 kPa | 999.9
29845 kPa | 999.9
29878 kPa | 999.9
29917 kPa | 1000
29950 kPa | 999.9
29983 kPa | 1000.1
30022 kPa | 999.9
30056 kPa | 1000
30088 kPa | 999.9
30128 kPa | 1000.2
30194 kPa | 1000.1
30227 kPa | 1000.2
30266 kPa | 1000.1
30299 kPa | 1000.3
30333 kPa | 1000.3
30374 kPa | 1000.1
30407 kPa | 1000.2
30441 kPa | 1000.2
30480 kPa | 1000.3
30514 kPa | 1000.3
30549 kPa | 1000.3
30590 kPa | 1000.5
30624 kPa | 1000.3
30658 kPa | 1000.4
30698 kPa | 1000.5
30733 kPa | 1000.5
30767 kPa | 1000.5
30808 kPa | 1000.6
30843 kPa | 1000.4
30878 kPa | 1000.6
30919 kPa | 1000.5
30954 kPa | 1000.5
30990 kPa | 1000.7
31031 kPa | 1000.7
31067 kPa | 1000.8
31103 kPa | 1000.6
31138 kPa | 1000.7
31181 kPa | 1000.7
31216 kPa | 1000.7
31252 kPa | 1000.8
31294 kPa | 1000.8
31330 kPa | 1000.9
31366 kPa | 1000.9
31409 kPa | 1001
31444 kPa | 1000.8
31481 kPa | 1000.8
31524 kPa | 1000.8
31560 kPa | 1000.9
31597 kPa | 1000.9
31634 kPa | 1001
31678 kPa | 1001
31714 kPa | 1001
31758 kPa | 1001.1
31795 kPa | 1001
31832 kPa | 1001
31876 kPa | 1001.1
31913 kPa | 1001.1
31950 kPa | 1001.3
31995 kPa | 1001.3
32033 kPa | 1001.4
32074 kPa | 1001.2
32111 kPa | 1001.4
32156 kPa | 1001.3
32194 kPa | 1001.5
32232 kPa | 1001.2
32278 kPa | 1001.4
32438 kPa | 1001.5
32476 kPa | 1001.5
32563 kPa | 1001.6
32604 kPa | 1001.6
32643 kPa | 1001.6
32691 kPa | 1001.8
32730 kPa | 1001.6
32769 kPa | 1001.8
32816 kPa | 1001.8
32856 kPa | 1001.8
32896 kPa | 1001.8
32943 kPa | 1001.8
32983 kPa | 1001.9
33024 kPa | 1001.9
33064 kPa | 1001.9
33114 kPa | 1002
33154 kPa | 1001.9
33196 kPa | 1001.9
33244 kPa | 1002.1
33285 kPa | 1002.1
33326 kPa | 1002.2
33374 kPa | 1002
33416 kPa | 1002.1
33457 kPa | 1002.2
33507 kPa | 1002.2
33548 kPa | 1002.2
33591 kPa | 1002.3
33641 kPa | 1002.3
33684 kPa | 1002.3
33726 kPa | 1002.5
33778 kPa | 1002.4
33822 kPa | 1002.4
